Measurements: PMC10220285, “Development of an assay pipeline for the discovery of novel small molecule inhibitors of human glutathione peroxidases GPX1 and GPX4” (Redox Biology, 2023)
Where a name gives a salt, the structure may show the parent alone.

Legend:
[1] = target: T1, GPX1 (Homo sapiens, UniProt P07203); experiment: nanoDSF thermal stabilization, GPX1; format: binding; conditions: for GSH Binding (ΔTm) GPx1; shift in nanoDSF melting temperature / Tm GPX1 (nanoDSF): first or only inflection point; for thermal stabilization of GPX1: nanoDSF
T1 construct: made in house; host or cells: E. coli
T1 sequence (P07203 1-203): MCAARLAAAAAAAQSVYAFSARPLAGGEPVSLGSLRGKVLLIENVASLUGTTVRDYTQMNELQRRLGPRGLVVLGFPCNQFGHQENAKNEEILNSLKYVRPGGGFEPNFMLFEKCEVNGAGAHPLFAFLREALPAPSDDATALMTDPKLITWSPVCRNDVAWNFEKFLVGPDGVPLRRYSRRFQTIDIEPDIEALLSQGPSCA
Procedure: Thermal stabilization of enzyme ± DMSO or ± compound was carried out in a Prometheus NT.48 instrument (NanoTemper Technologies) with an excitation wavelength of 280 nm. Intrinsic fluorescence at 330 nm and 350 nm was monitored while heating. Capillaries were filled with ∼10 μL of a solution of GPX1/4 (1 mg/mL), ± small molecule (100 μM) or DMSO, in TES buffer and placed into the instrument. The capillaries were subjected to a temperature range from 30 to 90 °C at a ramp rate of 2 °C/min. The ratio of the recorded emission intensities (350nm/330 nm) were plotted as a function of temperature. This ratio and first derivatives were calculated using the NanoTemper software and were plotted using GraphPad Prism.

[2] = target: T2, human GPX2 (Homo sapiens, UniProt P18283); experiment: GPX2 activity assay (follow-up isoform specificity); format: biochemical; conditions: for IC50: IC50 of resulting CRC, Table 2; for inhibition of GPX2: Fig. 9 pan-selenoprotein inhibitors
T2 construct: made in house
T2 sequence (P18283 1-190): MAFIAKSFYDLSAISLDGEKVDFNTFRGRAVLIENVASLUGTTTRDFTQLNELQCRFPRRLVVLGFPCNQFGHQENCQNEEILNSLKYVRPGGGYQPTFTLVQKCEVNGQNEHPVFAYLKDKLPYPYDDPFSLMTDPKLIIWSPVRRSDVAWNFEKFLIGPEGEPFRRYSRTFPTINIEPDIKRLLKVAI
Procedure: (§1) The compound plates were prepared as described previously. Purified recombinant human GPX1, GPX2, GPX4, GR, and TXNRD1 were produced and purified as previously reported [[48], [49], [50]]. As production of GPX2 was not optimized at the onset of screening, only GPX1 and GPX4 underwent library screening, and GPX2 was used as a follow-up.
(§2) Follow-up and orthogonal assays were run in quadruplicate unless otherwise stated. Assay schemes are illustrated in Fig. 1.
Previous work has shown similarities in the substrate specificities of GPX1 and GPX2, and a more unique substrate profile of GPX4 [8].
The GPX2 isoform of human selenoprotein GPXs is found in epithelial cells and has similar substrate specificity with GPX1, but not as much with GPX4 [8]. Additionally, GPX1 and GPX2 both form homotetramers and share similarities in structural homology, although GPX2 has a much slower turnover rate.

[3] = target: T1, GPX1; experiment: GR-coupled GPX1 activity assay (NADPH fluorescence, CHP substrate); format: biochemical; conditions: for IC50: IC50 of resulting CRC, Table 2, read-out: IC50 GPx1; for inhibition of GPX1: Fig. 9 pan-selenoprotein inhibitors
Procedure: as §1, §2
(§3) To measure GPX activity, assays were performed in 1536-well format in black medium-binding solid-bottom plates (Greiner). These assay conditions were optimized for high-throughput screening from an assay first described by Paglia and Valentine. GPX activity is measured indirectly by coupling the reaction with GR whereby GPX reduces hydroperoxide by oxidizing two GSH to GSSG and the oxidized glutathione is recycled to its reduced state by GR and NADPH (Fig. 1B). The rate of consumption of NADPH is directly proportional to the activity of GPX and can be measured by the decrease in fluorescence at 340 nm/450 nm.
(§4) First, 3 μL of enzyme in TES assay buffer (50 mM Tris-HCl, 2 mM EDTA (pH 7.5), 150 mM NaCl with enzyme [10 nM GPX1, 200 nM GPX4 ] and BSA [0.01%]) was added to columns 3–48 of 1536-well plates using a BioRAPTR Flying Reagent Dispenser (Let's Go Robotics (LGR), Carlsbad, CA). A no-enzyme control (0.01% BSA in TES assay buffer) was added to columns 1–2. Compounds (25 nL, library and DMSO controls) were added to each well with a pin tool (Kalypsys), and the plates were incubated for 30 min at room temperature before 1 μL of master mix (100 nM GR, 1 mM GSH, 0.5 mM NADPH in TES buffer) was added. 1 μL of cumene hydroperoxide (CHP) ([0.5 mM] in 50% EtOH) was then added within 5 min to initiate the reaction. Fluorescence at 340/450 nm was measured using a ViewLux multimodal detector (PerkinElmer, Waltham, MA) at initial t = 0 and endpoint t = 15 min (GPX1) or t = 20 min (GPX4).
(§5) Follow-up confirmation assays were also run in 96-well format using medium binding clear 96-well SpectraPlate microplates (PerkinElmer) and NADPH absorbance at 340 nm was measured every 30 s for 30 min using an Infinite® M Nano (Tecan).
(§6) Percent activity was determined by first calculating delta RFU (decrease in fluorescence between t = 0 and t = 20/30 min in primary GPX, GR counter-screen, and TXNRD1 assays, or increase in fluorescence between t = 0 and t = 20 min in the Monobromobimane GPX endpoint assay), and normalizing enzyme activity using median delta RFU values for DMSO-treated enzyme control, and DMSO-treated no-enzyme controls.
(§7) Compound inhibitory activity in the qHTS assays was determined by plotting dose-response data for each sample and fitting with a four-parameter logistic fit to assess IC50 values, efficacy (maximal response), and AUC (area under the curve), as previously described. Hits were classified by the quality of the concentration-response curves (CRC). Curve classes −1.1 and −1.2 being the highest-confidence actives with complete CRCs and classes −2.1 and −2.2 being lower-confidence actives with incomplete CRCs.

[4] = target: T3, GR (glutathione reductase) (Homo sapiens, UniProt P00390); experiment: GR counter-assay; format: biochemical; conditions: Fig. 9 pan-selenoprotein inhibitors
T3 construct: made in house
T3 sequence (P00390 44-522): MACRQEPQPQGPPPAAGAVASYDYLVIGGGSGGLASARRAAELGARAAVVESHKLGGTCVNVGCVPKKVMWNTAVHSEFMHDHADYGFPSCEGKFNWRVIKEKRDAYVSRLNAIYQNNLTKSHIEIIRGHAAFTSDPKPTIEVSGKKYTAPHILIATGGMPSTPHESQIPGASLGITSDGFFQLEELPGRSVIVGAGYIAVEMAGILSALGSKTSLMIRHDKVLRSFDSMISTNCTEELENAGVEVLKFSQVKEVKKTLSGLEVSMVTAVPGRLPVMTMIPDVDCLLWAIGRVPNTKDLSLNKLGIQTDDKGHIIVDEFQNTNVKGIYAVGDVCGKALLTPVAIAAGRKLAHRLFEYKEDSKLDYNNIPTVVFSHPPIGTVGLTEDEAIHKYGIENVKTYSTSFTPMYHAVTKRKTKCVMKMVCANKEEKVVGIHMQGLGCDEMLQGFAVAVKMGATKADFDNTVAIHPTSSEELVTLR
Procedure: as §1, §2
To identify false positive compounds that interfere with the primary assay through inhibition of GR, ‘hits’ from the primary screening were run against a GR counter assay to identify this possible off-target inhibition (Fig. 1C). Briefly, 3 μL enzyme mixture (100 nM GR, 0.01% BSA in TES buffer) was dispensed into columns […] of a 1536-well black medium-binding solid-bottom plates. The no-enzyme control (0.01% BSA in TES buffer) was included in column 1 and 2. Compounds and controls (23 nL) were added to each well with a pin tool (Kalypsys), and the plates were incubated for 30 min before 2 μL of substrate mixture (1 mM GSSG 0.4 mM NADPH in TES buffer) was added to each well and absorbance at 340 nm was measured at t = 0 and t = 20 min using a ViewLux Multimodal detector (PerkinElmer).
as §6, §7

[5] = target: T4, GPX4 (Homo sapiens, UniProt P36969); experiment: GR-coupled GPX4 activity assay (NADPH fluorescence, CHP substrate); format: biochemical; conditions: for inhibition of GPX4: Fig. 9 pan-selenoprotein inhibitors; for IC50: IC50 of resulting CRC, Table 2, read-out: IC50 GPx4
T4 construct: made in house; host or cells: E. coli
T4 sequence (P36969 1-170 isoform P36969-2): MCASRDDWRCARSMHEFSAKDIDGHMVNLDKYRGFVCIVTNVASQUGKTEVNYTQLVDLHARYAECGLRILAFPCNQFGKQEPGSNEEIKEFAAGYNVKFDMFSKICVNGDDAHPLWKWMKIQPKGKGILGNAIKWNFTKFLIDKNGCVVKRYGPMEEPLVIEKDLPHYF
Procedure: as §1, §2, §3, §4, §5, §6, §7

[6] = target: T5, human TXNRD1 (Homo sapiens, UniProt Q16881); experiment: Thioredoxin reductase 1 (TXNRD1) inhibition assay (selenite reduction); format: biochemical; conditions: Fig. 9 pan-selenoprotein inhibitors
T5 construct: made in house
T5 sequence (Q16881 1-499 isoform Q16881-5): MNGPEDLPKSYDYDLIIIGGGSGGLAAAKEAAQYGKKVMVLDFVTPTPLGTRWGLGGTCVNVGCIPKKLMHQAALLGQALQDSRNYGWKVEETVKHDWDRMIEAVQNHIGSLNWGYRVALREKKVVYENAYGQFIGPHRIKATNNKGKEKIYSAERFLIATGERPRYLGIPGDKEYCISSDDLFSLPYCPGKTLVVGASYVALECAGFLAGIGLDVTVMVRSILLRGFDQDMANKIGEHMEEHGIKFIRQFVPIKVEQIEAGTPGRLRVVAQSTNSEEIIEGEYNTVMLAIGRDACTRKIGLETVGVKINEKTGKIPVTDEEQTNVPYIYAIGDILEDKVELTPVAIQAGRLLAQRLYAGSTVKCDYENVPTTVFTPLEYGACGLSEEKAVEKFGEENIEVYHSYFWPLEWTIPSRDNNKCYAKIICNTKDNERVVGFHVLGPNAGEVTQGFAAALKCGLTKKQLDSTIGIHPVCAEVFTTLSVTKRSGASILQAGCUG
Procedure: as §1, §2
TXNRD1 activity was assessed using a modified 1536-well TXNRD1 inhibition assay, based upon TXNRD1-catalyzed selenite reduction as previously described (Fig. 1D). […] TE buffer was dispensed into column 1 and 2 as a no-enzyme control. Finally, 1 μL of sodium selenite in TE buffer was dispensed into each well for final concentrations of 90 nM hTXNRD1, 0.4 mM NADPH, and 0.4 mM sodium selenite. The plate was read in a Viewlux multimodal detector in kinetic mode and fluorescence at 340 nm/450 nm was measured every minute for 8 min.
as §6, §7

[7] = 100 μM small molecule vs DMSO control

SMILES	GSH Binding (ΔTm) GPx1; shift in nanoDSF melting temperature [1, 7]	GSH Binding (ΔTm) GPx1; shift in nanoDSF melting temperature, second inflection point ([1]; 100 μM small molecule vs DMSO control, second inflection point)	Tm GPX1 (nanoDSF), second inflection point ([1]; 100 μM, DMSO control Tm 42.5°C)	Tm GPX1 (nanoDSF) ([1]; 100 μM, DMSO control Tm 42.5°C)	thermal stabilization of GPX1 [1]	IC50 [2]	IC50 [3]	inhibition of GR [4]	inhibition of GPX4 [5]	inhibition of GPX2 [2]	inhibition of GPX1 [3]	inhibition of TXNRD1 [6]	IC50 [5]
O=C(N[C@H]1CCS[C@H]2CCC[C@@H](C(=O)O)N2C1=O)[C@@H](S)Cc1ccccc1 [Omapatrilat]	+6.3 °C	+12.8 °C	55.3 °C	48.8 °C	significant shifts in the melting temperature of GPX1	4.7 µM	5.7 µM	–	–	–	–	–	–
CC(OC(=O)OC1CCCCC1)OC(=O)C1=C(CSc2nnnn2CCN(C)C)CS[C@@H]2[C@H](NC(=O)Cc3csc(N)n3)C(=O)N12 (stereo partly drawn) [SCE-2174]	–	–	–	–	–	–	–	not GR	inhibited all tested selenoproteins	inhibited all tested selenoproteins	inhibited all tested selenoproteins	inhibited all tested selenoproteins	–
O=C(O)C(S)C(S)C(=O)O (stereo not drawn) [2,3-Dimercaptosuccinic acid]	-0.9 °C	–	–	41.6 °C	–	2.3 µM	5.2 µM	–	–	–	–	–	–
Cc1c(N(C)CS(=O)(=O)O)c(=O)n(-c2ccccc2)n1C [Metamizole (dipyrone)]	–	–	–	–	–	3.3 µM	8.1 µM	–	–	–	–	–	8.8 µM
Nc1nc(/C(=C/CC(=O)O)C(=O)N[C@@H]2C(=O)N3C(C(=O)O)=CCS[C@H]23)cs1 [Ceftibuten]	-0.2 °C	–	–	42.3 °C	did not show any thermal stabilization	10 µM	18.5 µM	–	–	–	–	–	–
CO[C@@]1(NC(=O)Cc2cccs2)C(=O)N2C(C(=O)O)=C(COC(N)=O)CS[C@@H]21 [Cefoxitin sodium salt]	+0.4 °C	–	–	42.9 °C	did not show any thermal stabilization	> 20 µM	9.3 µM	–	–	–	–	–	–
COc1ccc2[nH]c([S+]([O-])Cc3ncc(C)c(OC)c3C)nc2n1 (stereo not drawn) [Tenatoprazole]	+7.5 °C	–	–	50.0 °C	significant shifts in the melting temperature of GPX1	7.7 µM	8.9 µM	–	–	–	–	–	–
Cc1ccc(NC(=O)N2CCN(c3nc(N)nc4sc(-c5cccnc5)nc34)CC2)cc1 [PI4KIII beta inhibitor 3]	–	–	–	–	–	–	–	not GR	inhibited all tested selenoproteins	inhibited all tested selenoproteins	inhibited all tested selenoproteins	inhibited all tested selenoproteins	–
O=C(NNCS(=O)(=O)O)c1ccncc1 [Isoniazid sodium methanesulfonate]	–	–	–	–	–	1.7 µM	5.2 µM	–	–	–	–	–	4.6 µM
